Experimental data published in patent publication US12678472B2, “Method for selective recovery of hydrophobic compounds” (priority 2019, dated 2026).

Legend:
[1] = Capture of target molecule from solution by insoluble cross-linked cyclodextrin polymer (batch slurry, supernatant measured after filtration); conditions: Example 9: 2 mg/mL CBD in 1:1 ethanol:water, 10:1 polymer:CBD
Description: A standard protocol was followed in all Examples with the variances from the standard protocol as described in each Example. The standard protocol included a plurality of steps. A mass of CBD was dissolved in ethanol to form a stock solution. A reference sample of the stock solution was diluted with ethanol to obtain a target CBD or other target molecule concentration for a reference measurement. A reaction sample was taken from the remaining stock solution. A cross-linked polysaccharide was combined with the reaction sample in a ratio relative to the CBD or other target molecule concentration present in the reaction sample (by mass) as specified in Examples. The cross-linked polymer is HDI-linked cyclodextrin prepared with a ratio of 8:1 HDI to cyclodextrin.
Water is combined with the reaction sample until the reaction sample reaches a target CBD or other target molecule concentration, and a target ethanol to water ratio. The reaction mixture including the water is filtered at a cutoff size of between 75 μm to 4,000 μm aperture size, or exposed to a magnetic field with a neodymium magnet through the wall of a flask, to retrieve the cross-linked polymer bound with CBD or other target molecule concentration. Once retrieved, the cross-linked polymer is flushed with a dissociation solvent for dissolving the target molecule. […]

[2] = Solubility of CBD in ethanol:water mixtures

Compound: C=C(C)[C@@H]1CCC(C)=C[C@H]1c1c(O)cc(CCCCC)cc1O [CBD, cannabidiol]
- time to capture plateau [1]: about 5 minutes
- solubility of CBD ([2]; 40:60 EtOH:H2O, 2 mg/mL CBD): not fully dissolved
- solubility of CBD ([2]; 45:56 EtOH:H2O, 2 mg/mL CBD): cloudy
- solubility of CBD ([2]; 50:50 EtOH:H2O, EtOH added first then H2O): dissolves
- solubility of CBD ([2]; Example 13: 6 mg/mL in 1:1 EtOH:H2O with sonication and heating): did not dissolve
- percent of the CBD not in solution ([2]; Example 17: CBD in 3:7 EtOH:H2O): Ten
